According to US6294580A, “Substituted 4-hydroxy-phenylalcanoic acid derivatives with agonist activity to PPAR-gamma” (Glaxo Wellcome Inc., priority 1996, dated 2001):
Counter-ions that a name gives are not always drawn. Like-named read-outs stand apart in the source and are kept apart here.

Experiments:
PPARg = test: PPARgamma Transient Cotransfection Assay; format: cell-based; details: CAT reporter; for EC50: read-out: PPARg EC50
hPPARgamma = target: T1, hPPARgamma (Homo sapiens, UniProt P37231); test: hPPARgamma Ligand Binding Assay
T1 construct: 10x-histidine tag (N); made in house; host or cells: E. coli
T1 sequence (P37231 195-475 isoform P37231-2): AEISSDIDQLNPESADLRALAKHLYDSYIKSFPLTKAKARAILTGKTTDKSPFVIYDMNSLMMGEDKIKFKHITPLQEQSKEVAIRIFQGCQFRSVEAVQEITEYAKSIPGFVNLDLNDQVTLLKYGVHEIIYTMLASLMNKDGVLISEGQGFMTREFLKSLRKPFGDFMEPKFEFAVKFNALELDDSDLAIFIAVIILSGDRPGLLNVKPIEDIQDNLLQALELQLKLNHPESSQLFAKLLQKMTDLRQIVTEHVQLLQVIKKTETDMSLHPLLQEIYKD
Description: 2. hPPARgamma Ligand Binding Assay: The PPAR-gamma ligand binding domain (amino acids 195-475) was expressed with an N-terminal 10×-histidinetag in E. coli cells. The cells were lysed and receptor was purified by means of the epitope tag. The stock solution of protein was diluted to 200 nM in assay buffer (50 mM Tris, 50 mM KCl, pH 8 20 mM CHAPS, 2 mM EDTA 10 mM DTT (Fresh)) just before use.
Test compounds were prepared as 6 mM stock solutions in DMSO. […] The right-most column of wells was used for controls. […] Plates were incubated at room temperature for 2 hrs, and then cooled on ice for 30 minutes. 50 uL samples from each well of a single test plate were simultaneously loaded onto an equilibrated AGTC 96 well gel filtration block (Advanced Genetics Technology Corp.) using a Zymak Rapidplate automated pipettor. The block was placed on top of a clean microtiter plate and centrifuged @1,100×g for 4 min. 200 uL of scintillation fluid was added to each well, the plates were sealed and allowed to equilibrate for at least 4 hours before counting in a Wallac 1250 Microbeta counter.
Ki's were determined from a nonlinear least squares fit of the data to a simple competitive binding model.

[1] = PPARg Ki, competition with [3H]-BRL 49,653, room temperature 2 hrs

Ki (hPPARgamma; competition with [3H]-BRL 49,653, room temperature 2 hrs; read-out: PPARg Ki) [nM]	SMILES	EC50 (PPARg) [nM]	Ki (hPPARgamma; [1]) [nM]	Ki (hPPARgamma; read-out: PPARg Ki; competition with [3H]-BRL 49,653, room temperature 2 hrs) [nM]	PPARg Fold. Act. (PPARg)
–	COC(=O)c1ccccc1N[C@@H](Cc1ccc(OCCc2nc(-c3ccccc3)sc2C)cc1)C(=O)O [Example 45, 2-(1-Carboxy-2-{4-[2-(5-methyl-2-phenyl-thiazol-4-yl)-ethoxy]-phenyl}-ethylamino)-benzoic acid methyl ester]	1	30	–	–
–	Cc1ccc(NC(Cc2ccc(OCCN(C)c3nc4ccccc4o3)cc2)C(=O)O)c(C(=O)c2ccccc2)c1 (centres unmarked) [Example 19, 3-{4-[2-(benzoxazol-2-yl-methyl-amino)-ethoxy]-phenyl}-2-(2-benzoyl-4-methyl-phenylamino)-propionic acid]	65	185	–	–
–	COC(=O)c1ccccc1N[C@@H](Cc1ccc(OCCOc2ccc([N+](=O)[O-])cn2)cc1)C(=O)O [Example 69]	100	–	290	–
–	Cc1oc(-c2ccccc2)nc1CCOc1ccc(CC(Nc2ccccc2C(=O)c2cccc(NS(C)(=O)=O)c2)C(=O)O)cc1 (centres unmarked) [Example 95, 2-[2-(3-methanesulfonylamino-benzoyl)-phenylamino]-3-{4-[2-(5-methyl-2-phenyl-oxazol-4-yl)-ethoxy]-phenyl}-propionic acid]	700	380	–	–
–	CC(=CC(=O)c1cccc(I)c1)N[C@@H](Cc1ccc(OCCN(C)c2nc3ccccc3o2)cc1)C(=O)O [Example 18, 3-{4-[2-(Benzoxazol-2-yl-methyl-amino)-ethoxy]-phenyl}-2(S)-[3-(3-iodo-phenyl)-1-methyl-3-oxo-propenylamino]-propionic acid dicyclohexylamine salt]	5	10	–	–
–	CN(CCOc1ccc(CC(Nc2ccccc2C(=O)c2ccc(C(F)(F)F)cc2)C(=O)O)cc1)c1nc2ccccc2o1 (centres unmarked) [Example 73]	25	115	–	–
–	CN(CCOc1ccc(CC(Nc2ccccc2C(=O)c2ccsc2)C(=O)O)cc1)c1nc2ccccc2o1 (centres unmarked) [Example 75]	100	75	–	–
–	O=C(c1ccccc1)c1ccccc1N[C@@H](Cc1ccc(OC[C@@H]2CCCN2c2ccccn2)cc1)C(=O)O [Example 61, 2S-(2-benzoyl-phenylamino)-3-[4-(1-pyridin-2-yl-pyrrolidin-2S-yl-methoxy)-phenyl]-propionic acid]	15	10	–	–
–	Cc1cccc(C)c1C(=O)c1ccccc1NC(Cc1ccc(OCCN(C)c2nc3ccccc3o2)cc1)C(=O)O (centres unmarked) [Example 83]	165	350	–	–
–	CN(CCOc1ccc(CC(Nc2ccccc2C(=O)c2ccccc2C(F)(F)F)C(=O)O)cc1)c1nc2ccccc2o1 (centres unmarked) [Example 77]	65	155	–	–
–	O=C(c1ccccc1)c1sccc1NC(Cc1ccc(OCc2ccccc2)cc1)C(=O)O (centres unmarked) [Example 9, 2-(2-Benzoyl-thiophen-3-yl-amino)-3-(4-benzyloxy-phenyl)-propionic acid]	630	700	–	–
–	O=C(c1ccccc1)c1ccccc1NC(Cc1ccc(OC2CCN(c3nc4ccccc4o3)C2)cc1)C(=O)O (centres unmarked) [Example 55, 3-[4-(1-Benzoxazol-2-yl-pyrrolidin-3-yloxy)-phenyl]-2-(2-benzoyl-phenylamino)-propionic acid]	460	1400	–	–
–	CN(CCOc1ccc(CC(Nc2ccccc2C(=O)C2CCCCC2)C(=O)O)cc1)c1nc2ccccc2o1 (centres unmarked) [Example 24, 3-{4-[2-(Benzoxazol-2-yl-methyl-amino)-ethoxy]-phenyl}-2-(2-cyclohexanecarbonyl-phenylamino)-propionic acid]	1	30	–	–
–	CC(=CC(=O)c1ccccc1)N[C@@H](Cc1ccc(OCc2ccccc2)cc1)C(=O)O [Example 1, 3-(4-Benzyloxy-phenyl)-2(S)-(1-methyl-3-oxo-3-phenyl-propenylamino)-propionic acid dicyclohexylamine salt]	60	55	–	26
–	Cc1oc(-c2ccccc2)nc1CCOc1ccc(CC(Nc2ccccc2C(=O)c2cccc(OCC(N)=O)c2)C(=O)O)cc1 (centres unmarked) [Example 98, 2-[2-(3-Carbanoylmethoxy-benzoyl)-phenylamino]-3-{4-[2-(5-methyl-2-phenyl-oxazol-4-yl)-ethoxy]-phenyl}-propionic acid]	375	10	–	–
–	Cc1cccc(C(=O)c2ccccc2NC(Cc2ccc(OCCN(C)c3nc4ccccc4o3)cc2)C(=O)O)c1 (centres unmarked) [Example 80]	10	10	–	–
1160	Cc1oc(-c2ccccc2)nc1CCOc1ccc(CC(Nc2ccccc2C(=O)c2cccc(CN(C)C)c2)C(=O)O)cc1 (centres unmarked) [Example 87, 2-[2-(3-dimethylaminomethyl-benzoyl)-phenylamino]-3-{4-[2-(5-methyl-2-phenyl-oxazol-4-yl)-ethoxy]-phenyl}-propionic acid hydrochloride]	465	–	–	–

Ki (hPPARgamma; competition with [3H]-BRL 49,653, room temperature 2 hrs; read-out: PPARg Ki) [nM]	SMILES	EC50 (PPARg) [nM]	Ki (hPPARgamma; [1]) [nM]	Ki (hPPARgamma; read-out: PPARg Ki; competition with [3H]-BRL 49,653, room temperature 2 hrs) [nM]	PPARg Fold. Act. (PPARg)
–	O=C(c1ccccc1)c1ccccc1NC(Cc1ccc(OC2CCN(c3nc4ccccc4o3)C2)cc1)C(=O)O (centres unmarked) [Example 21, 3-[4-(1-Benzoxazol-2-yl-pyrrolidin-3-yloxy)-phenyl]-2-(2-benzoyl-phenylamino)-propionic acid]	150	530	–	–
–	Cc1oc(-c2ccccc2)nc1CCOc1ccc(CC(Nc2ccccc2C(=O)c2cccc(O)c2)C(=O)O)cc1 (centres unmarked) [Example 97, 2-[2-(3-hydroxy-benzoyl)-phenylamino]-3-{4-[2-(5-methyl-2-phenyl-oxazol-4-yl)-ethoxy]-phenyl}-propionic acid]	20	5	–	–
–	COC(=O)c1ccccc1N[C@@H](Cc1ccc(OCCc2ccc(Cl)cc2)cc1)C(=O)O [Example 106, 2(S)-(1-carboxy-2-{4-[2-(4-chloro-phenyl)-ethoxy]-phenyl}-ethylamino)-benzoic acid methyl ester]	300	140	–	–
–	CN(CCOc1ccc(CC(Nc2ccccc2C(=O)C2CCCCCC2)C(=O)O)cc1)c1nc2ccccc2o1 (centres unmarked) [Example 49, 3-{4-[2-(Benzoxazol-2-yl-methyl-amino)-ethoxy]-phenyl}-2-(2-cycloheptanecarbonyl-phenylamino)-propionic acid]	10	80	–	–
–	CN(CCOc1ccc(CC(Nc2ccccc2C(=O)c2ccccc2)C(=O)O)cc1)c1nc2ccccc2o1 (centres unmarked) [Example 15, 3-{4-[2-(benzoxazol-2-yl-methyl-amino)-ethoxy]-phenyl}-2-(2-benzoyl-phenylamino)-propionic acid]	1	40	–	–
–	CN(CCOc1ccc(CC(Nc2ccccc2C(=O)c2ccc(-c3ccccc3)cc2)C(=O)O)cc1)c1nc2ccccc2o1 (centres unmarked) [Example 109, 3-{4-[2-(Benzoxazol-2-yl-methylamino)-ethoxy]-phenyl}-2-(2-(4-biphenylcarbonyl)-phenylamino)-propionic acid]	200	700	–	–
–	COC(=O)C(Cc1ccc(OCc2ccccc2)cc1)Nc1ccccc1C(=O)OCc1ccccc1 (centres unmarked) [Example 5]	9000	> 3000	–	10
–	CN(CCOc1ccc(CC(Nc2ccccc2C(=O)c2cccs2)C(=O)O)cc1)c1nc2ccccc2o1 (centres unmarked) [Example 74]	55	800	–	–
–	CCOC(=O)C(Cc1ccc(OCCN(C)c2ccccn2)cc1)Nc1ccccc1C(=O)c1ccccc1 (centres unmarked) [Example 13, 2-(2-Benzoyl-phenylamino)-3-{4-[2-(methyl-pyridin-2-yl-amino)-ethoxy]-phenyl}-propionic acid ethyl ester]	60	1300	–	–
–	COc1cccc(C(=O)c2ccccc2NC(Cc2ccc(OCCN(C)c3nc4ccccc4o3)cc2)C(=O)O)c1 (centres unmarked) [Example 78]	200	40	–	–
–	Cc1oc(-c2ccccc2)nc1CCOc1ccc(CC(Nc2ccccc2C(=O)c2cccc(N)c2)C(=O)O)cc1 (centres unmarked) [Example 94, 2-[2-(3-amino-benzoyl)-phenylamino]-3-{4-[2-(5-methyl-2-phenyl-oxazol-4-yl)-ethoxy]-phenyl}-propionic acid]	10	40	–	–
–	O=C(c1ccccc1)c1ccccc1NC(Cc1ccc(OC[C@H]2CCCN2c2nc3ccccc3o2)cc1)C(=O)O (some centres unmarked) [Example 22]	20	65	–	–
–	COC(=O)Nc1cccc(C(=O)c2ccccc2NC(Cc2ccc(OCCc3nc(-c4ccccc4)oc3C)cc2)C(=O)O)c1 (centres unmarked) [Example 96, 2-[2-(3-methoxycarbonylamino-benzoyl)-phenylamino]-3-{4-[2-(5-methyl-2-phenyl-oxazol-4-yl)-ethoxy]-phenyl}-propionic acid]	300	280	–	–
–	COc1ccc(C(=O)c2ccccc2NC(Cc2ccc(OCCN(C)c3nc4ccccc4o3)cc2)C(=O)O)cc1 (centres unmarked) [Example 110, 3-{4-[2-(Benzoxazol-2-yl-methylamino)-ethoxy]-phenyl}-2-(2-(4-methoxy-benzoyl)-phenylamino)-propionic acid]	65	50	–	–
–	Cc1cc(-c2ccco2)nn1CCOc1ccc(C[C@H](Nc2ccccc2C(=O)c2ccccc2)C(=O)O)cc1 [Example 63, 2S-(2-benzoyl-phenylamino)-3-{4-[2-(3-furan-2-yl-5-methyl-pyrazol-1-yl)-ethoxy]-phenyl}-propionic acid]	20	30	–	–
–	CN(CCOc1ccc(CC(Nc2cc(F)ccc2C(=O)C2CCCCC2)C(=O)O)cc1)c1nc2ccccc2o1 (centres unmarked) [Example 50, 3-{4-[2-(Benzoxazol-2-yl-methyl-amino)-ethoxy]-phenyl}-2-(2-cyclohexanecarbonyl-5-fluoro-phenylamino)-propionic acid]	50	390	–	–
